Activity calls are given as the source filed them. The rule behind the calls is not given here.
Assays:
MDA-MB-231 [1] = test: Induction of apoptosis in human MDA-MB-231 cells assessed as necrotic cells at 10 uM after 24 hrs by AnnexinV-FITC/PI staining based flow cytometry analysis (reference value: 0.083%); type: functional
MDA-MB-231 [2] = test: Induction of apoptosis in human MDA-MB-231 cells assessed as early apoptotic cells at 5 uM after 24 hrs by AnnexinV-FITC/PI staining based flow cytometry analysis (reference value: 2.63%); type: functional
[3] = biological target: T1, Serine/threonine-protein kinase mTOR (Homo sapiens, UniProt P42345); test: Inhibition of mTOR in human MDA-MB-468 cells assessed as reduction in AKT protein level at 0.5 to 2 uM after 24 hrs by Western blot analysis; type: cell-based; details: dose 0.5-2 µM
MDA-MB-231 [4] = test: Induction of autophagy in human MDA-MB-231 cells assessed as increase in LC3-II protein level at 2.5 to 10 uM incubated for 24 hrs by Western blot analysis; type: functional, cell-based; details: dose 2.5-10 µM
[5] = biological target: T1, Serine/threonine-protein kinase mTOR; test: Inhibition of mTOR in human MDA-MB-231 cells assessed as reduction in P70S6 protein level at 0.5 to 2 uM after 24 hrs by Western blot analysis; type: cell-based; details: dose 0.5-2 µM
MDA-MB-468 [6] = test: Induction of apoptosis in human MDA-MB-468 cells assessed as necrotic cells at 2.5 uM after 24 hrs by AnnexinV-FITC/PI staining based flow cytometry analysis (reference value: 1.56%); type: functional
MDA-MB-231 [7] = test: Induction of apoptosis in human MDA-MB-231 cells assessed as decrease in Bcl2 level at 2.5 to 10 uM incubated for 24 hrs by western blot analysis; type: functional, cell-based; details: dose 2.5-10 µM
MDA-MB-231 [8] = test: Induction of apoptosis in human MDA-MB-231 cells assessed as necrotic cells at 5 uM after 24 hrs by AnnexinV-FITC/PI staining based flow cytometry analysis (reference value: 0.083%); type: functional
MDA-MB-231 [9] = test: Induction of apoptosis in human MDA-MB-231 cells assessed as late apoptotic cells at 10 uM after 24 hrs by AnnexinV-FITC/PI staining based flow cytometry analysis (reference value: 0.84 to 1.59%); type: functional
MDA-MB-468 [10] = test: Induction of apoptosis in human MDA-MB-468 cells assessed as decrease in Bcl2 level at 2.5 to 10 uM incubated for 24 hrs by western blot analysis; type: functional, cell-based; details: dose 2.5-10 µM
[11] = biological target: T1, Serine/threonine-protein kinase mTOR; test: Inhibition of mTOR in human MDA-MB-468 cells assessed as reduction in total 4EBP1 protein level at 0.5 to 2 uM after 24 hrs by Western blot analysis; type: cell-based; details: dose 0.5-2 µM
MDA-MB-231 [12] = test: Induction of apoptosis in human MDA-MB-231 cells assessed as early apoptotic cells at 10 uM pretreated with autophagy inhibitor, 3-methyladenine for 1 hr followed by incubation with compound and measured after 24 hrs by Annexin V-FITC/propidium iodide staining based flow cytometry (reference value: 3.81%); type: functional; design: scale not given: the % may be the effect or the level left
MDA-MB-231 [13] = test: Induction of apoptosis in human MDA-MB-231 cells assessed as viable cells at 10 uM after 24 hrs by AnnexinV-FITC/PI staining based flow cytometry analysis (reference value: 95.6 to 96.45%); type: functional; details: read-out: Activity
MDA-MB-468 [14] = test: Induction of apoptosis in human MDA-MB-468 cells assessed as necrotic cells at 5 uM after 24 hrs by AnnexinV-FITC/PI staining based flow cytometry analysis (reference value: 1.56%); type: functional
MDA-MB-231 [15] = test: Inhibition of colony formation in human MDA-MB-231 cells at 10 uM incubated for 14 days in presence of autophagy inhibitor, 3-methyladenine by crystal violet staining based analysis; type: functional, cell-based; details: time 14.0 day
[16] = biological target: T1, Serine/threonine-protein kinase mTOR; test: Inhibition of mTOR in human MDA-MB-468 cells assessed as reduction in P70S6 protein level at 0.5 to 2 uM after 24 hrs by Western blot analysis; type: cell-based; details: dose 0.5-2 µM
MDA-MB-468 [17] = test: Induction of apoptosis in human MDA-MB-468 cells assessed as viable cells at 10 uM after 24 hrs by AnnexinV-FITC/PI staining based flow cytometry analysis (reference value: 95.1 to 96.3%); type: functional; details: read-out: Activity
MDA-MB-231 [18] = test: Inhibition of colony formation in human MDA-MB-231 cells measured after 14 days by crystal violet staining based assay; type: functional, cell-based; details: dose 5-10 µM, time 14.0 day
[19] = biological target: T1, Serine/threonine-protein kinase mTOR; test: Inhibition of mTOR in human MDA-MB-468 cells assessed as reduction in p70S6K(Thr389) protein level at 0.5 to 2 uM after 24 hrs by Western blot analysis; type: cell-based; details: dose 0.5-2 µM
MDA-MB-231 [20] = test: cells; details: Homo sapiens, MDA-MB-231, 24 h
Description: Antiproliferative activity against human MDA-MB-231 cells assessed as reduction in cell viability incubated for 24 hrs by MTT assay

MDA-MB-231 [21] = test: Induction of autophagy in human MDA-MB-231 cells assessed as MDC positive ratio at 1 uM incubated for 6 hrs by MDC staining based flow cytometry analysis; type: functional
MDA-MB-231 [22] = test: Induction of apoptosis in human MDA-MB-231 cells assessed as viable cells at 5 uM after 24 hrs by AnnexinV-FITC/PI staining based flow cytometry analysis (reference value: 96.45%); type: functional; details: read-out: Activity
MDA-MB-468 [23] = test: Induction of apoptosis in human MDA-MB-468 cells assessed as late apoptic cells at 2.5 uM after 24 hrs by AnnexinV-FITC/PI staining based flow cytometry analysis (reference value: 2.84%); type: functional
MDA-MB-231 [24] = test: Induction of autophagy in human MDA-MB-231 cells expressing mRFP-EGFP-LC3B at 5 uM measured after 24 hrs by fluorescence microscopic analysis; type: functional, cell-based
MDA-MB-468 [25] = test: Induction of autophagy in human MDA-MB-468 cells assessed as increase in LC3-II protein level at 2.5 to 10 uM incubated for 24 hrs by Western blot analysis; type: functional, cell-based; details: dose 2.5-10 µM
MDA-MB-231 [26] = test: Antiproliferative activity against human MDA-MB-231 cells assessed as inhibition of cell viability at 5 uM preincubated with autophagy inhibitor, 3-methyladenine for 1 hr followed by compound addition and measured after 24 hrs by MTT assay; type: functional, cell-based
MDA-MB-468 [27] = test: Induction of apoptosis in human MDA-MB-468 cells assessed as necrotic cells at 10 uM after 24 hrs by AnnexinV-FITC/PI staining based flow cytometry analysis (reference value: 1.56%); type: functional
MDA-MB-231 [28] = test: Induction of autophagy in human MDA-MB-231 cells assessed as increase in Beclin-1 protein level at 2.5 to 10 uM incubated for 24 hrs by Western blot analysis; type: functional, cell-based; details: dose 2.5-10 µM
MDA-MB-231 [29] = test: Induction of autophagy in human MDA-MB-231 cells assessed as reduction in p62 protein level at 2.5 to 10 uM incubated for 24 hrs by Western blot analysis; type: functional, cell-based; details: dose 2.5-10 µM
MDA-MB-468 [30] = test: Induction of autophagy in human MDA-MB-468 cells expressing mRFP-EGFP-LC3B at 5 uM measured after 24 hrs by fluorescence microscopic analysis; type: functional, cell-based
MDA-MB-468 [31] = test: Induction of apoptosis in human MDA-MB-468 cells assessed as increase in Bax level at 2.5 to 10 uM incubated for 24 hrs by western blot analysis; type: functional, cell-based; details: dose 2.5-10 µM
MDA-MB-231 [32] = test: Induction of apoptosis in human MDA-MB-231 cells assessed as increase in cleaved caspase 3 level at 2.5 to 10 uM incubated for 24 hrs by western blot analysis; type: functional, cell-based; details: dose 2.5-10 µM
MDA-MB-468 [33] = test: Induction of apoptosis in human MDA-MB-468 cells assessed as viable cells at 10 uM pretreated with autophagy inhibitor, 3-methyladenine for 1 hr followed by incubation with compound and measured after 24 hrs by Annexin V-FITC/propidium iodide staining based flow cytometry (reference value: 93.6%); type: functional; details: read-out: Activity

With `C/C(=N\NC(=O)c1cccc(Br)c1)c1ccc(C(=O)Nc2nc3ccccc3[nH]2)cc1` as the compound, how does the Activity (MDA-MB-231 [1]) read?
Its Activity is 0.15%.

What about the Activity (MDA-MB-231 [2]) of the same compound?
Its Activity is 10.5%.

And the inhibition [3]?
Its inhibition is “Active”.

What about the Activity (MDA-MB-231 [4]) of the same compound?
Its Activity is “Active”.

And the inhibition [5]?
The inhibition was “Active”.

And the Activity (MDA-MB-468 [6])?
The Activity was 1.89%.

What about the Activity (MDA-MB-231 [7]) of the same compound?
The Activity was “Active”.

And the Activity (MDA-MB-231 [8])?
The Activity was 0.099%.

What about the Activity (MDA-MB-231 [9]) of the same compound?
The Activity was 5.71%.

And the Activity (MDA-MB-468 [10])?
Its Activity is “Active”.

And the inhibition [11]?
The inhibition was “Active”.

What about the Activity (MDA-MB-231 [12]) of the same compound?
Its Activity is 6.1%.

What about the viability at 10 µM (MDA-MB-231 [13]) of the same compound?
The viability at 10 µM was 70.2%.

And the Activity (MDA-MB-468 [14])?
The Activity was 0.87%.

And the inhibition (MDA-MB-231 [15])?
Its inhibition is “Active”.

And the inhibition [16]?
The inhibition was “Active”.

What about the viability at 10 µM (MDA-MB-468 [17]) of the same compound?
The viability at 10 µM was 60.5%.

And the inhibition (MDA-MB-231 [18])?
The inhibition was “Dose-Dependent Effect”.

What about the inhibition [19] of the same compound?
The inhibition was “Active”.

And the IC50 (MDA-MB-231 [20])?
Its IC50 is 3.38 µM.

What about the Activity (MDA-MB-231 [21]) of the same compound?
Its Activity is 25.67%.

What about the viability at 5 µM (MDA-MB-231 [22]) of the same compound?
Its viability at 5 µM is 87.1%.

What about the Activity (MDA-MB-468 [23]) of the same compound?
Its Activity is 4.96%.

What about the Activity (MDA-MB-231 [24]) of the same compound?
Its Activity is “Active”.

And the Activity (MDA-MB-468 [25])?
The Activity was “Active”.

And the Activity (MDA-MB-231 [26])?
The Activity was “Active”.

What about the Activity (MDA-MB-468 [27]) of the same compound?
Its Activity is 1.24%.

And the Activity (MDA-MB-231 [28])?
Its Activity is “Active”.

What about the Activity (MDA-MB-231 [29]) of the same compound?
Its Activity is “Active”.

And the Activity (MDA-MB-468 [30])?
Its Activity is “Active”.

What about the Activity (MDA-MB-468 [31]) of the same compound?
Its Activity is “Active”.

What about the Activity (MDA-MB-231 [32]) of the same compound?
The Activity was “Active”.

And the viability at 10 µM (MDA-MB-468 [33])?
Its viability at 10 µM is 81%.
